Laboratory results from the supplement of paper PMC10307832.

Key:
Test in all cases: relative viability (nuclei count vs DMSO), 5 days (fraction); higher = more cells survive
[1] = tested on: NCI-H1944
Method in brief: (§1)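 Each reported value is a median over duplicate plates. It expresses relative viability: treated-well nuclei count divided by vehicle-well nuclei count. Lung cancer cell lines in 1536-well plates were dosed by pin tool a day after seeding, alone with one drug or with a fixed anchor-drug dose plus five library-drug doses (not always all listed) in √10 steps, and nuclei were counted after 5 days.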

[2] = tested on: NCI-H1651
Method in brief: as §1

[3] = tested on: NCI-H1395
Method in brief: as §1

[4] = tested on: EMC-BAC-2
Method in brief: as §1

[5] = tested on: EPLC-272H
Method in brief: as §1

[6] = tested on: NCI-H520
Method in brief: as §1

[7] = tested on: NCI-H838
Method in brief: as §1

[8] = tested on: LU99A
Method in brief: as §1

[9] = tested on: NCI-H2087
Method in brief: as §1

[10] = tested on: ChaGo-K-1
Method in brief: as §1

[11] = tested on: HCC-827
Method in brief: as §1

[12] = tested on: NCI-H1793
Method in brief: as §1

[13] = tested on: HCC-44
Method in brief: as §1

[14] = tested on: NCI-H2405
Method in brief: as §1

[15] = tested on: NCI-H650
Method in brief: as §1

[16] = tested on: NCI-H2023
Method in brief: as §1

[17] = tested on: LCLC-103H
Method in brief: as §1

[18] = tested on: COR-L23
Method in brief: as §1

[19] = tested on: NCI-H2085
Method in brief: as §1

[20] = tested on: SK-MES-1
Method in brief: as §1

[21] = tested on: H3255
Method in brief: as §1

For O=c1cc(-c2cccc3c2Sc2ccccc2S3)oc(N2CCOCC2)c1 + O=C(c1cc(Cc2n[nH]c(=O)c3ccccc23)ccc1F)N1CCN(C(=O)C2CC2)CC1 [Olaparib] (partner 8 µM), which relative viability ([1]; first compound 0.08 µM) is on record?
Its relative viability is 0.401.

What about the relative viability ([1]; first compound 0.253 µM) of the same compound?
The relative viability was 0.401.

And the relative viability ([1]; first compound 0.8 µM)?
Its relative viability is 0.414.

And the relative viability ([1]; first compound 2.53 µM)?
The relative viability was 0.43.

What about the relative viability ([1]; first compound 8 µM) of the same compound?
The relative viability was 0.397.

What about the relative viability ([2]; first compound 0.08 µM) of the same compound?
Its relative viability is 0.166.

And the relative viability ([2]; first compound 0.253 µM)?
Its relative viability is 0.175.

And the relative viability ([2]; first compound 0.8 µM)?
The relative viability was 0.184.

What about the relative viability ([2]; first compound 2.53 µM) of the same compound?
Its relative viability is 0.168.

And the relative viability ([2]; first compound 8 µM)?
Its relative viability is 0.176.

What about the relative viability ([3]; first compound 0.08 µM) of the same compound?
The relative viability was 0.404.

What about the relative viability ([3]; first compound 0.253 µM) of the same compound?
Its relative viability is 0.416.

What about the relative viability ([3]; first compound 0.8 µM) of the same compound?
The relative viability was 0.513.

And the relative viability ([3]; first compound 2.53 µM)?
The relative viability was 0.471.

And the relative viability ([3]; first compound 8 µM)?
The relative viability was 0.47.

What about the relative viability ([4]; first compound 0.08 µM) of the same compound?
Its relative viability is 0.523.

And the relative viability ([4]; first compound 0.253 µM)?
The relative viability was 0.568.

What about the relative viability ([4]; first compound 0.8 µM) of the same compound?
The relative viability was 0.518.

And the relative viability ([4]; first compound 2.53 µM)?
Its relative viability is 0.571.

And the relative viability ([4]; first compound 8 µM)?
The relative viability was 0.514.

What about the relative viability ([5]; first compound 0.08 µM) of the same compound?
Its relative viability is 0.986.

What about the relative viability ([5]; first compound 0.253 µM) of the same compound?
Its relative viability is 0.896.

What about the relative viability ([5]; first compound 0.8 µM) of the same compound?
Its relative viability is 0.998.

What about the relative viability ([5]; first compound 2.53 µM) of the same compound?
The relative viability was 0.774.

What about the relative viability ([5]; first compound 8 µM) of the same compound?
Its relative viability is 0.483.

What about the relative viability ([6]; first compound 0.08 µM) of the same compound?
Its relative viability is 0.391.

What about the relative viability ([6]; first compound 0.253 µM) of the same compound?
Its relative viability is 0.321.

What about the relative viability ([6]; first compound 0.8 µM) of the same compound?
The relative viability was 0.439.

And the relative viability ([6]; first compound 2.53 µM)?
Its relative viability is 0.322.

What about the relative viability ([6]; first compound 8 µM) of the same compound?
The relative viability was 0.339.

What about the relative viability ([7]; first compound 0.08 µM) of the same compound?
Its relative viability is 0.9.

What about the relative viability ([7]; first compound 0.253 µM) of the same compound?
Its relative viability is 1.1.

What about the relative viability ([7]; first compound 0.8 µM) of the same compound?
The relative viability was 0.752.

What about the relative viability ([7]; first compound 2.53 µM) of the same compound?
The relative viability was 0.715.

And the relative viability ([7]; first compound 8 µM)?
Its relative viability is 0.546.

What about the relative viability ([8]; first compound 0.08 µM) of the same compound?
The relative viability was 0.251.

And the relative viability ([8]; first compound 0.253 µM)?
Its relative viability is 0.298.

What about the relative viability ([8]; first compound 0.8 µM) of the same compound?
The relative viability was 0.296.

And the relative viability ([8]; first compound 2.53 µM)?
The relative viability was 0.245.

And the relative viability ([8]; first compound 8 µM)?
The relative viability was 0.214.

And the relative viability ([9]; first compound 0.08 µM)?
Its relative viability is 0.604.

And the relative viability ([9]; first compound 0.253 µM)?
Its relative viability is 0.605.

And the relative viability ([9]; first compound 0.8 µM)?
Its relative viability is 0.682.

And the relative viability ([9]; first compound 2.53 µM)?
Its relative viability is 0.638.

And the relative viability ([9]; first compound 8 µM)?
Its relative viability is 0.561.

And the relative viability ([10]; first compound 0.08 µM)?
The relative viability was 0.503.

And the relative viability ([10]; first compound 0.253 µM)?
Its relative viability is 0.494.

What about the relative viability ([10]; first compound 0.8 µM) of the same compound?
The relative viability was 0.415.

And the relative viability ([10]; first compound 2.53 µM)?
The relative viability was 0.466.

And the relative viability ([10]; first compound 8 µM)?
The relative viability was 0.411.

And the relative viability ([11]; first compound 0.08 µM)?
Its relative viability is 0.621.

What about the relative viability ([11]; first compound 0.253 µM) of the same compound?
The relative viability was 0.716.

What about the relative viability ([11]; first compound 0.8 µM) of the same compound?
The relative viability was 0.677.

And the relative viability ([11]; first compound 2.53 µM)?
Its relative viability is 0.588.

And the relative viability ([11]; first compound 8 µM)?
Its relative viability is 0.768.

And the relative viability ([12]; first compound 0.08 µM)?
Its relative viability is 0.815.

What about the relative viability ([12]; first compound 0.253 µM) of the same compound?
The relative viability was 1.08.

And the relative viability ([12]; first compound 0.8 µM)?
Its relative viability is 0.899.

What about the relative viability ([12]; first compound 2.53 µM) of the same compound?
The relative viability was 0.721.

And the relative viability ([12]; first compound 8 µM)?
Its relative viability is 0.63.

What about the relative viability ([13]; first compound 0.08 µM) of the same compound?
Its relative viability is 0.927.

What about the relative viability ([13]; first compound 0.253 µM) of the same compound?
The relative viability was 1.02.

What about the relative viability ([13]; first compound 0.8 µM) of the same compound?
The relative viability was 0.972.

And the relative viability ([13]; first compound 2.53 µM)?
The relative viability was 1.02.

And the relative viability ([13]; first compound 8 µM)?
The relative viability was 0.951.

And the relative viability ([14]; first compound 0.08 µM)?
The relative viability was 0.861.

And the relative viability ([14]; first compound 0.253 µM)?
The relative viability was 1.04.

And the relative viability ([14]; first compound 0.8 µM)?
The relative viability was 0.791.

What about the relative viability ([14]; first compound 2.53 µM) of the same compound?
Its relative viability is 0.8.

And the relative viability ([14]; first compound 8 µM)?
Its relative viability is 0.936.

And the relative viability ([15]; first compound 0.08 µM)?
The relative viability was 0.397.

What about the relative viability ([15]; first compound 0.253 µM) of the same compound?
Its relative viability is 0.402.

And the relative viability ([15]; first compound 0.8 µM)?
The relative viability was 0.424.

What about the relative viability ([15]; first compound 2.53 µM) of the same compound?
Its relative viability is 0.378.

And the relative viability ([15]; first compound 8 µM)?
Its relative viability is 0.415.

And the relative viability ([16]; first compound 0.08 µM)?
The relative viability was 0.445.

What about the relative viability ([16]; first compound 0.253 µM) of the same compound?
Its relative viability is 0.513.

What about the relative viability ([16]; first compound 0.8 µM) of the same compound?
Its relative viability is 0.435.

And the relative viability ([16]; first compound 2.53 µM)?
Its relative viability is 0.345.

What about the relative viability ([16]; first compound 8 µM) of the same compound?
Its relative viability is 0.348.

And the relative viability ([17]; first compound 0.08 µM)?
The relative viability was 0.765.

And the relative viability ([17]; first compound 0.253 µM)?
Its relative viability is 0.776.

What about the relative viability ([17]; first compound 0.8 µM) of the same compound?
The relative viability was 0.873.

And the relative viability ([17]; first compound 2.53 µM)?
The relative viability was 0.736.

And the relative viability ([17]; first compound 8 µM)?
Its relative viability is 0.71.

And the relative viability ([18]; first compound 0.08 µM)?
The relative viability was 0.35.

What about the relative viability ([18]; first compound 0.253 µM) of the same compound?
Its relative viability is 0.395.

And the relative viability ([18]; first compound 0.8 µM)?
The relative viability was 0.351.

And the relative viability ([18]; first compound 2.53 µM)?
Its relative viability is 0.362.

And the relative viability ([18]; first compound 8 µM)?
Its relative viability is 0.351.

And the relative viability ([19]; first compound 0.08 µM)?
The relative viability was 0.771.

And the relative viability ([19]; first compound 0.253 µM)?
The relative viability was 0.846.

What about the relative viability ([19]; first compound 0.8 µM) of the same compound?
Its relative viability is 0.857.

And the relative viability ([19]; first compound 2.53 µM)?
The relative viability was 0.762.

What about the relative viability ([19]; first compound 8 µM) of the same compound?
Its relative viability is 0.654.

And the relative viability ([20]; first compound 0.08 µM)?
The relative viability was 0.756.

What about the relative viability ([20]; first compound 0.253 µM) of the same compound?
The relative viability was 0.892.

And the relative viability ([20]; first compound 0.8 µM)?
The relative viability was 0.708.

What about the relative viability ([20]; first compound 2.53 µM) of the same compound?
The relative viability was 0.705.

And the relative viability ([20]; first compound 8 µM)?
The relative viability was 0.467.

What about the relative viability ([21]; first compound 0.08 µM) of the same compound?
The relative viability was 0.592.

What about the relative viability ([21]; first compound 0.253 µM) of the same compound?
Its relative viability is 0.586.

What about the relative viability ([21]; first compound 0.8 µM) of the same compound?
The relative viability was 0.571.

What about the relative viability ([21]; first compound 2.53 µM) of the same compound?
The relative viability was 0.525.

And the relative viability ([21]; first compound 8 µM)?
Its relative viability is 0.594.
